The subject of one series is neointimal formation. The settings on record: controlled local delivery; rat carotid balloon injury model; cited from earlier work.
A further series addresses T1, PDGF β-receptor (Sus scrofa, UniProt F1RL75).
T1 construct: PDGF-BB stimulated; immunoprecipitated with PDGF beta-receptor specific antiserum R3
Description: PDGF induced PDGFR autophosphorylation in intact SMC cells. Type of series: cell-based. The settings on record: porcine arterial SMC. The procedure:
Effect of tyrphostins on PDGF induced PDGFR autophosphorylation in intact SMC cells: Subconfluent porcine arterial smooth muscle cells, cultivated in Dulbecco's modified Eagle's medium (DMEM) supplemented with 15% fetal calf serum (FCS), were synchronized for 20 hours in a medium containing 2% FCS. […] After stimulation, the cells were solubilized in Nonidet P-40 (1%) containing lysis buffer.
The analysis of PDGF p-receptor phosphorylation was performed as follows. Cell lysates were subjected to immunoprecipitation using the PDGF β-receptor specific antiserum R3 [5]. The percipitates were subjected to polyacrylamide (7.5%) gel electrophoresis in presence of sodium deducyl sulfate (SDS-PAGE) and were thereafter blotted onto a nitrocellulose membrane (Hybond C-EXTRA, Amersham). Phosphorylated proteins were detected by immunoblotting using the horseradish-peroxidase conjugated phosphotyrosine antibody RC20H (Transduction Laboratories), followed by chemoluminescence-based detection (ECL, Amersham) and autoradiography.
Detection of receptor proteins was performed as follows. Cell lysates were subjected to immunoprecipitation using the PDGF β-receptor specific antiserum R3 [5], as described above, and the percipitates washed three times and thereafter subjected to SDS-PAGE (7.5%) and blotting onto a nitrocellulose membrane (Hybond C-EXTRA, Amersham). Receptor proteins were detected by immunoblotting using the horseradish-peroxidase conjugated donkey anti-rabbit antibody (Amersham), followed by chemoluminescence-based detection (ECL, Amersham) and autoradiography.

Series [1] deals with fibroblast growth factor-dependent DNA synthesis. The settings on record: relative to PDGF dependent DNA synthesis; cited from earlier work.
Series [2] deals with porcine endothelial cells (EC). Description: Inhibition of cell proliferation and recovery, porcine EC. The settings on record: for inhibition at 10 µM: Sus scrofa, Endothelial cell. Type of series: cell-based. The source says: Endothelial cells (EC) were isolated from porcine carotid arteries. Using aseptic procedure, both common carotid arteries were isolated, and the distal end of each artery was cannulated through an arteriotomy and ligated. The arteries were then perfused with phosphate buffered saline (PBS) and the proximal end ligated isolating a 5-7 cm long blood-free portion of the artery. The isolated portion of each artery was filled with PBS containing calcium and magnesium and 0.1% collagenase (Boehringer Manneheim, Germany). The segments were excised and incubated for 10 min at 37° C. in sterile bottles containing PBS. […] Cells were seeded on fibronectin-coated dishes at a seeding density of 15,000 cells/well and incubated at 37° C. in 9% CO2. ECGS (25 μg/ml) was added every other day until confluence was observed, typically within 6-8 days.
(§1) Inhibition of cell proliferation and recovery: Monolayer cell growth inhibition and recovery experiments were repeated 3 or 4 times. Each experiment was performed in triplicate. […] Cultures were treated with a tyrphostin (10 μM) dissolved in 0.1% DMSO on days 1 and 3. On day 6, cultures were washed and the cells allowed to recover. Typically cells were counted on days 3 and 5 for inhibition, and on days 7, 10 and 15 for recovery, other schedules were also employed as reported below.

Series [3] has as its system porcine aortic smooth muscle cells (SMC). In words: Inhibition of cell proliferation and recovery, porcine SMC. In kind it is cell-based. The settings on record: for inhibition at 10 µM: Sus scrofa. The procedure: Smooth muscle cells (SMC) were obtained under aseptic conditions from porcine abdominal aortas, and human internal mammary arteries (IMA). Specimens from the operating room were transferred on ice to the tissue culture room. Each artery was cut open and the endothelial surface mechanically scraped. […] The tissue fragments were then placed in an incubator at 37° C. under 9% CO2 atmosphere until SMC outgrowth was detected (typically within 3-7 days). […] For experiments testing the effect of tyrphostins on growth inhibition and recovery (see below), SMC from passages 1-3 were replated in 15 mm wells pretreated with 3 μg/cm^2 fibronectin (Biological Industries, Kibbutz Beit Haemek, Israel) at 15,000 cells/well.
as §1

Series [4] relates to epidermal growth factor receptor. The settings on record: cited from earlier work.
Series [5] deals with human internal mammary artery smooth muscle cells (IMA SMC). In words: Inhibition of cell proliferation and recovery, human IMA SMC. Type of series: cell-based. The source says: Smooth muscle cells (SMC) were obtained under aseptic conditions from porcine abdominal aortas, and human internal mammary arteries (IMA). Specimens from the operating room were transferred on ice to the tissue culture room. Each artery was cut open and the endothelial surface mechanically scraped. The vessels were then cut into 2 mm^2 fragments which were placed in culture dishes with Dulbecco's modified Eagle's medium (DMEM) supplemented with 15% (v/v) fetal calf serum (FCS), 100 u/ml penicillin, 100 μg/ml streptomycin, and […] L-glutamine. The tissue fragments were then placed in an incubator at 37° C. under 9% CO2 atmosphere until SMC outgrowth was detected (typically within 3-7 days). […] For experiments testing the effect of tyrphostins on growth inhibition and recovery (see below), SMC from passages 1-3 were replated in 15 mm wells pretreated with 3 μg/cm^2 fibronectin (Biological Industries, Kibbutz Beit Haemek, Israel) at 15,000 cells/well.
Inhibition of cell proliferation and recovery: Monolayer cell growth inhibition and recovery experiments were repeated 3 or 4 times. Each experiment was performed in triplicate. Approximately 15,000 cells (SMC or EC) in 1 ml of culture medium supplemented with 15% FCS were seeded on day 0 in 15 mm-wells precoated with fibronectin. Cultures were treated with a tyrphostin (10 μM) dissolved in 0.1% DMSO on days 1 and 3. On day 6, cultures were washed and the cells allowed to recover. Typically cells were counted on days 3 and 5 for inhibition, and on days 7, 10 and 15 for recovery, other schedules were also employed as reported below. The medium supplemented with serum (M-199 with ECGS for EC, and DMEM for SMC) was changed every other day throughout the experiment.
FIG. 9 presents the maximal inhibitory and recovery effects on human IMA SMC growth inflicted by 10 or 25 μM of AG1851 and AG1295. Cells were grown in the presence of the specified tyrphostins and were counted after seven days in culture. On day 7 the cultures were washed and the cells allowed to recover. Seven days later they were counted for recovery. The bar graph show the maximal inhibition and the recovery in each experiment and for controls.

Series [6] concerns DNA synthesis stimulated by insulin, by epidermal growth factor, or by a combination of both. The settings on record: cited from earlier work.
In the next series the test system is Swiss 3T3 cells. The settings on record: read-out: 50% inhibitory concentration, PDGF receptor kinase and PDGF dependent DNA synthesis; cited from earlier work.
Series [7] concerns porcine aorta endothelial cells (EC). The settings on record: read-out: 50% inhibitory concentration, PDGF receptor kinase and PDGF dependent DNA synthesis; cited from earlier work.
For the next series, the system named is human PDGF α-receptor. The settings on record: cited from earlier work.
The next series concerns human PDGF β-receptor. The settings on record: cited from earlier work.
Series [8] concerns src-transformed NIH 3T3 cells. The settings on record: cited from earlier work.
The subject of series [9] is stem cell factor receptor (c-Kit). The settings on record: cited from earlier work.
A further series has as its system p60c-src(F527). The settings on record: cited from earlier work.
Series [10] deals with vascular endothelial growth factor receptor KDR. The settings on record: cited from earlier work.
Series [11] has as its system porcine aortic endothelial cells. The settings on record: cited from earlier work.
For series [12], the system named is sis-transfected NIH 3T3 cells. The settings on record: cited from earlier work.

Entries after “also recorded” stand apart in the source; their conditions may differ. Where two headings read alike, the source gives them in different places. A value given as a limit tells only on which side of the number the result lay.

T1 sequence (F1RL75 109-1181): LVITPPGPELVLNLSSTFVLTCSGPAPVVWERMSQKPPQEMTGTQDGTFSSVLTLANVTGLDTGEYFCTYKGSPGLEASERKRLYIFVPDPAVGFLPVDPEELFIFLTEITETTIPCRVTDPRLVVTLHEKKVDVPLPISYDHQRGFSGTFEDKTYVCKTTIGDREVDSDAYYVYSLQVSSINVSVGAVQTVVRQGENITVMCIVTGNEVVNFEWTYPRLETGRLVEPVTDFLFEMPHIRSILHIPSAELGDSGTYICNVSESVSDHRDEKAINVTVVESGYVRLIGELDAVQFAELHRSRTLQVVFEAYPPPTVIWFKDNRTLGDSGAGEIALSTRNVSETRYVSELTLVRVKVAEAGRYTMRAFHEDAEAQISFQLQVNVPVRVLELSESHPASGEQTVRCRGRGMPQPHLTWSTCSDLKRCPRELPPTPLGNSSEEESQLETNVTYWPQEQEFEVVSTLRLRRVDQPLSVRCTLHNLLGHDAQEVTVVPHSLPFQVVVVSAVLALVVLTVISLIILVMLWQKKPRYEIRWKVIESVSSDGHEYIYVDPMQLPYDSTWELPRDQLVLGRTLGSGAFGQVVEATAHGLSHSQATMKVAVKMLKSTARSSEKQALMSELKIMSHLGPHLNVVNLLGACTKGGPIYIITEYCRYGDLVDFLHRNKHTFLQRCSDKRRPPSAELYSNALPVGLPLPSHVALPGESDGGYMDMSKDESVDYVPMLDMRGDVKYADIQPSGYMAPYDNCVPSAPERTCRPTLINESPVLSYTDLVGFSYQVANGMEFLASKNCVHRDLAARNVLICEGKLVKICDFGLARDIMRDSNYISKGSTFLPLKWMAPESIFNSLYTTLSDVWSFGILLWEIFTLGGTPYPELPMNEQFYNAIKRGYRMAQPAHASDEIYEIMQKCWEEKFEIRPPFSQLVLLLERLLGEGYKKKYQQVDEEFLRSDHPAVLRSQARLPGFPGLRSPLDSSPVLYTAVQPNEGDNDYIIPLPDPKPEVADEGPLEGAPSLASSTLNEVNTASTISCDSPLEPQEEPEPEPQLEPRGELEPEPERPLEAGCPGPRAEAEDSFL

As for `CC(C)(C)c1cc(C=C(C#N)C#N)cc(C(C)(C)C)c1O` [AG17], in the series with neointimal formation, the “inhibition of neointimal formation” value is listed as “effectively inhibits neointimal formation”.

Consider `Cc1cc2ncc(-c3ccccc3)nc2cc1C` [AG1295, reference compound], for which, on PDGF β-receptor, the “level of PDGF β-receptor protein present in the cells” value is reported as “without affecting the level”. In addition, at PDGF β-receptor (tyrphostin 10 μM, 60 min preincubation, PDGF-BB 100 ng/ml), the “inhibition of PDGF-BB induced PDGF β-receptor tyrosine-phosphorylation” value is recorded as “completely inhibited”. Moreover, the “blocking effect on fibroblast growth factor-dependent DNA synthesis” value in series [1] is listed as “over an order of magnitude weaker blocking effect”. In addition, the “reversibility of the inhibitory effect on EC” value in [2] is on record as “completely reversible”. Further, the inhibition at 10 µM in series [2] (72 h, by day 3, read-out: mean reduction of EC growth compared to controls) was roughly 10%; in series [2] (120 h, by day 5, read-out: reduction of EC growth compared to controls), 13.5%; in series [2] (FIG. 8 experiment, 10 μM, read-out: maximal inhibitory effect on porcine EC proliferation) it was 22%; in [3] (72 h, read-out: mean reduction in SMC count compared to DMSO treated control cells, 10 μM, by day 3), 46%; in series [3] (120 h, read-out: reduction in SMC count / inhibition of SMC growth over control, 10 μM, by day 5 (day given for AG1295 and AG1992)) it was 78%; in series [3] (read-out: maximal inhibitory effect on porcine SMC proliferation, FIG. 6 experiment, 10 μM), 65%. The inhibition at 10 µM came to 81% in series [3] (read-out: maximal inhibitory effect on porcine SMC proliferation, FIG. 7 experiment, 10 μM) and 78% in [3] (read-out: mean reduction in SMC count compared to control cells (maximal inhibition in SMC growth), Table 2, 10 μM). Also, the “inhibitory effect on porcine SMC growth (in words)” value in [3] (10 μM, FIGS. 3-7) is listed as “very potent growth inhibition effect; also recorded: highly effective in blocking proliferation; also recorded: very effective proliferation inhibitors”. Further, the “toxicity on SMC” value in series [3] (10 μM, porcine SMC) is on record as “low lasting toxicity”. Also, the “reversibility of the inhibitory effect / recovery of SMC growth after washout” value in [3] (porcine SMC, cultures washed, cells allowed to recover) is on record as “completely reversible”. The “effect on epidermal growth factor receptor autophosphorylation” value in series [4] was “no effect”. The “reversibility of the effect on IMA SMC upon removal of the tyrphostin” value in [5] (25 μM) is given as “completely reversible”. Moreover, the inhibition at 25 µM in series [5] (Homo sapiens, 120 h, read-out: mean reduction / inhibition of IMA SMC proliferation compared to untreated or DMSO-treated cells) stood at 48%. The “effect on DNA synthesis stimulated by insulin, by epidermal growth factor, or by a combination of both” value in series [6] is recorded as “weak effects”. The IC50 was less than 5000 nM in the series on Swiss 3T3 cells and less than 1000 nM in series [7].

For the compound `COc1cc2ncc(-c3ccccc3)nc2cc1OC` [AG1296], the “inhibition of signalling of human PDGF α-receptor” value with human PDGF α-receptor is listed as “potently inhibits”. The “blocking effect on fibroblast growth factor-dependent DNA synthesis” value in series [1] is reported as “over an order of magnitude weaker blocking effect”. For the same compound, the “inhibition of signalling of human PDGF β-receptor” value in the series on human PDGF β-receptor is on record as “potently inhibits”. Also, the “effect on src-transformed NIH 3T3 cells” value in series [8] is listed as “no effect”. In addition, the “effect on epidermal growth factor receptor autophosphorylation” value in series [4] is on record as “no effect”. In addition, the “inhibition of signalling of stem cell factor receptor (c-Kit)” value in series [9] is recorded as “potently inhibits”. Also, the “effect on activity of the kinase p60c-src(F527) immunoprecipitated from src-transformed NIH 3T3 cells” value in the series on p60c-src(F527) is on record as “no effect”. Moreover, in series [10], the “effect on autophosphorylation of KDR” value is given as “no effect”. Moreover, the “effect on DNA synthesis induced by vascular endothelial growth factor” value in series [11] is on record as “no effect”. The “effect on transformed phenotype of sis-transfected NIH 3T3 cells” value in series [12] is “reverses the transformed phenotype”. In [6], the “effect on DNA synthesis stimulated by insulin, by epidermal growth factor, or by a combination of both” value is reported as “weak effects”. For the same compound, the results for the IC50 (with Swiss 3T3 cells; in [7]) were less than 5000 nM and less than 1000 nM, respectively.

The values above are taken from patent US5932580A, “PDGF receptor kinase inhibitory compounds their preparation and compositions” (priority 1997, dated 1999).
